Laboratory results reported in US5859029A, “Heterocyclic compounds method of preparing them and pharmeutical compositions in which they are present” (Sanofi, priority 1995, dated 1999).
Structures can show the parent of a compound that is named as a salt.

Target: T1, NK1 receptors of IM9 human lymphoblasts (Homo sapiens, UniProt P25103)
T1 construct: NK1 receptors of IM9 human lymphoblasts; endogenous in cells; host or cells: IM9 human lymphoblasts
Experiment: Binding of [^125 I]BH-SP (substance P) to the NK1 receptors of human lymphoblasts
Conditions: read-out: inhibition constant Ki (binding of substance P to the human lymphoblast NK1 receptor)
Description: In ligand binding studies, the inhibition constant Ki is defined by the Cheng-Prusoff relationship (in Receptor Binding in Drug Research, eds. R. A. O'Brien, Marcel Dekker, New York, 1986): [formula] [L]: concentration of the ligand, Kd: dissociation constant of the ligand,
IC50 : concentration which inhibits the ligand binding by 50%.
The affinity of the compounds of formula (I) for the tachykinin receptors was evaluated in vitro by several biochemical tests using radioligands:
1°) The binding of [^125 I]BH-SP (substance P labeled with iodine-125 using Bolton-Hunter's reagent) to the NK1 receptors of human lymphoblasts.
The tests were performed according to X. Emonds-Alt et al. (Eur. J. Pharmacol., 1993, 2, 403-413).

T1 sequence (P25103 whole entry): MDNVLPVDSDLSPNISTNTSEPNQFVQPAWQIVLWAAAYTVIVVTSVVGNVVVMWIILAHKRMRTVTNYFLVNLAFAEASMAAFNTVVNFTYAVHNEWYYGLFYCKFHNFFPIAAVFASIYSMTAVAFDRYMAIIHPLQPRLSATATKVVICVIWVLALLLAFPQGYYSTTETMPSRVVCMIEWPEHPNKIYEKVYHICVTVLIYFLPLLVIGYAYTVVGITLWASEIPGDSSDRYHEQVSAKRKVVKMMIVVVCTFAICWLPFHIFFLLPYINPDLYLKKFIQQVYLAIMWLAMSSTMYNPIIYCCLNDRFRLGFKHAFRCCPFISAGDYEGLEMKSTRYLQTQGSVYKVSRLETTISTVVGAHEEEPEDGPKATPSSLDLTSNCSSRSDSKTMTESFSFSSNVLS

| Structure (SMILES) | Ki |
| --- | --- |
| O=C1CC(CCN2CCC(O)(c3ccccc3)CC2)(c2ccc(Cl)c(Cl)c2)CCN1Cc1ccccc1 (stereo not shown) [1-benzyl-4-(3,4-dichlorophenyl)-4-[2-(4-hydroxy-4-phenylpiperid-1-yl)ethyl]piperid-2-one hydrochloride] | ~1000 nM |
| O=C1CC(CCN2CCC(O)(c3ccccc3)CC2)(c2ccc(Cl)c(Cl)c2)CN1Cc1cc(C(F)(F)F)cc(C(F)(F)F)c1 (stereo not shown) [Example 10, 4-(3,4-Dichlorophenyl)-4-[2-(4-hydroxy-4-phenylpiperid-1-yl)ethyl]-1-[3,5-bis(trifluoromethyl)benzyl]pyrrolidin-2-one hydrochloride] | ~0.1 nM |
| O=C1CCC(CCN2CCC(Cc3ccccc3)CC2)(c2ccc(Cl)c(Cl)c2)CN1Cc1ccccc1 (stereo not shown) [5-[2-(4-benzyl-1-piperid-1-yl)ethyl]-5-(3,4-dichlorophenyl)-1-benzylpiperid-2-one hydrochloride] | ~1000 nM |
| C[N+]1(CCC2(c3ccc(Cl)c(Cl)c3)CCC(=O)N(Cc3cc(C(F)(F)F)cc(C(F)(F)F)c3)C2)CCC(c2ccccc2)CC1 (stereo not shown) [Example 7, 1-Methyl-1-[2-[1-[3,5-bis(trifluoromethyl)benzyl]-5-(3,4-dichlorophenyl)-2-oxopiperid-5-yl]-ethyl]-4-phenylpiperidinium iodide] | ~0.1 nM |
